Results reported in patent US20150297761A1, “PEPTIDIC STRUCTURES INCORPORATING AN AMINO ACID METAL COMPLEX AND APPLICATIONS IN MAGNETIC RESONANCE IMAGING” (THE GENERAL HOSPITAL CORPORATION, priority 2012, published 2015).

What was measured:
[1] = Kinetic inertness: Zn(II) transmetallation in phosphate buffer, followed by 1/T1; format: physicochemical
Description: Kinetic inertness was also taken into account in the evaluation of potential probes. In this regard, [Gd(CyPic3A)(H2O)2]^− was challenged with 1 equiv. [ZnPO4]^− as a slurry in pH 7.0 phosphate buffer at 310 K (see below). Several clinically utilized Gd(III) complexes have been benchmarked relative to one another in this manner.^37 As Gd(III) replaced by Zn(II) precipitates from the solution as GdPO4, the relaxation rate 1/T1 decreases. In this method, the time required to reach 80% of the initial 1/T1 value was utilized as an index of kinetic inertness.
Modified conditions of Muller and co-workers were used for this experiment.^11,12 Solutions containing 2.5 mM [Gd(CyPic3A)(H2O)2]^− and 2.5 mM Zn(OTf)2 were combined in pH 7.0 phosphate buffer (50 mM) and placed in an incubator shaker set to 310 K. Progress of the transchelation was monitored via the decrease in 1/T1 with time. Prior to measurement, aliquots were placed in small glass inserts and centrifuged to bring all insoluble material to the bottom so as not to interfere with the measurement.

[2] = 310 K, cited from earlier work; for r1 0.47 T 310K: literature (superscript refs); for r1 1.41 T 310K: cell says 1.5 T, literature (ref 17)
[3] = hydration state; literature (superscript refs); cited from earlier work
HSA = HSA (Homo sapiens, UniProt P02768); experiment: HSA binding by ultrafiltration and ICP-MS (Example 3); format: in vitro ADME; conditions: 0.1 mM compound, 4.5% (w/v) HSA, 37° C.
Chain of HSA (P02768 25-609): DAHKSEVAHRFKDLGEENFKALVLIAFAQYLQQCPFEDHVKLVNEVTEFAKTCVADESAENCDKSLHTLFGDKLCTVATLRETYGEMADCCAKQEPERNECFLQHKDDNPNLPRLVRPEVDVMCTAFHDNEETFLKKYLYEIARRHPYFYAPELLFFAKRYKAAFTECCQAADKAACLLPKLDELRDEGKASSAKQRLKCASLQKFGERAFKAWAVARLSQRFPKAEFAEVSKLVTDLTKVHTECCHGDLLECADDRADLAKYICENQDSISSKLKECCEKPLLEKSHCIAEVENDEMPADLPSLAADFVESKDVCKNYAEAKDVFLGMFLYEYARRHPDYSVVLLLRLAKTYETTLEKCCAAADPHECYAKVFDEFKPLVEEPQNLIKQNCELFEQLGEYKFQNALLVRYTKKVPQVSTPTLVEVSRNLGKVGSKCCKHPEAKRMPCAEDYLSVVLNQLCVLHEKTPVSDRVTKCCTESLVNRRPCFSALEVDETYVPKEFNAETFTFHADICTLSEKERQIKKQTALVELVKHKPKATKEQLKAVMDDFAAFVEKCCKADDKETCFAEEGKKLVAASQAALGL
Procedure: In order to measure HSA binding of the complexes, a 0.1 mM solution (determined by ICP-MS) of the corresponding Gd complex in 4.5% w/v HSA was prepared and pipetted into a Ultrafree-MC Microcentrifuge Filter (NMWL 5,000 Da, PLCC, Millipore). The mixture is incubated at 37° C. for 10 minutes and subsequently centrifuged at 12,000 rpm for 15 minutes. Binding is determined by measurement of Gd content in the filtrate by ICP-MS.

[4] = Relaxivity in the absence and presence of HSA (Example 3); format: physicochemical; conditions: for r1 (20 MHz), absence of HSA / r1 (60 MHz), absence of HSA: absence of HSA (first value of cell); for r1 (20 MHz), presence of HSA / r1 (60 MHz), presence of HSA: presence of HSA (second value of cell)
Procedure: ^1H and ^13C NMR spectra were recorded on a Varian 500 NMR system equipped with a 5 mm broadband probe. Longitudinal relaxation times, T1, were measured by using the inversion recovery method on Bruker Minispecs. mq20 (20 MHz) and mq60 (60 MHz). Purification via HPLC of intermediates toward Fmoc-DOTAla was performed using method A: Injection of crude mixture onto preparative HPLC on a Rainin, Dynamax (column: 250 mm Kromasil C18) by using A: 0.1% TFA in water, B: 0.1% TFA in MeCN, flow-rate 15 mL/min, 1 over 23 minutes. HPLC purity analysis (both UV and MS detection) was carried out on an Agilent 1100 system (column: Phenomenex Luna, C18(2) 100/2 mm) with UV detection at 220, 254 and 280 nm by using a method B: A gradient of A(0.1% formic acid in water) to 95% B(0.1% formic acid in MeCN), flow-rate 0.8 mL/min, 1 over 15 minutes.

[5] = Ligand challenge, equilibrium constant Kcomp of MS-325 vs. L; format: physicochemical; conditions: calculated from literature thermodynamic data
Procedure: (§1) Equilibration of each solution was monitored by LC-MS. Relative distributions of [Gd(CyPic3A)(H2O)2]^− and CyPic3A were determined by integrating the corresponding absorbance traces at 280 nm. […] Kcomp values determined between [Gd(DTPA)(H2O)]^2− and various ligands were determined from conditional formation constants (Kcond)^4 values taken from the literature.^6-16 Direct comparisons were only made between Kcond values determined under identical conditions.

[6] = Ligand challenge, equilibrium constant Kcomp of [Gd(DTPA)(H2O)]2− vs. L; format: physicochemical; conditions: calculated from literature thermodynamic data
Procedure: As a means of assessing thermodynamic stability relative to other Gd(III)-complexes, [Gd(CyPic3A)(H2O)2]^− was challenged with DTPA in pH 7.4 25 mM Tris buffer. […] From this information it was possible to deduce equilibrium constants (Kcomp) for the competition reaction described in Equation 5,^31 where L=DTPA and L′=challenging chelator.
as §1

[7] = cited from earlier work
[8] = Relaxivity of Gd(DOTAla) metallopeptides and reference agents (T1 inversion recovery, 37° C.); format: physicochemical
Procedure: Main numbers are given per Gd, numbers in parentheses are per molecule values. All numbers were determined at 37° C. using an inversion recovery sequence at concentrations ranging from 0.05 to 0.6 mM/Gd. Table 4 in Example 2 further expands the data of Table 1.
Per Gd relaxivities were determined by measuring T1 at 37° C. using 20, 60, 200, 400 and 500 MHz spectrometers. Relaxivities for MS-325 (with and without the presence of HSA) as a reference compound with a long τR and [Gd(HP-DO3A)(H2O)] as a reference for very short τR were also measured, and all the relaxivity data is tabulated in Table 4, together with results obtained from literature for the compounds with similar estimated τR. […] Additional rigidity through cyclization seems to provide only minor relaxivity increase for the dimeric and trimeric systems (Gd2C2 and Gd3C3).
Measurement of relaxivity. Longitudinal relaxation times T1, were measured on Bruker Minispecs mq20 (0.47 T) and mq60 (1.41 T), a Bruker Bioscan horizontal bore 4.7 T, 9.4 T and 11.7 T Varian NMR spectrometers. T1 was measured by using an inversion recovery method with 10 inversion time values ranging from 0.05×T1 to 5×T1. Relaxivity was calculated from a linear plot of 3 or 4 different concentrations (ranging from 0.01 to 0.5 mM, depending on amount of compound isolated) versus the corresponding inverse relaxation times. All samples were measured at 37° C. using either the internal temperature control of the instrument (0.47, 1.41, 9.4 and 11.7 T) or a warm air blower (4.7 T). MS-325/HSA was prepared in a 4.5% w/v solution of HSA (0.66 mM) in PBS. The MS-325 concentration (in presence of HSA) ranged from 0.05 to 0.15 mM.

## CNC(=O)CN(CCN(CCN(CC(=O)[O-])CC(=O)NC)CC(=O)[O-])CC(=O)[O-].[Gd+3] [[Gd(DTPA-BMA)(H2O)]]
[1]; 1 equiv. Zn(II), pH 7.0 phosphate buffer, 310 K
  time to 80% of the initial 1/T1: 124 min
[2]
  r1 0.47 T 310K: 3.5^17 mM^−1s^−1
  r1 1.41 T 310K: 3.3 (1.5 T)^17 mM^−1s^−1
[3]
  q: 1^16

## C[C@@H](C(=O)NC(CN1CCN(CC(=O)O)CCN(CC(=O)O)CCN(CC(=O)O)CC1)C(=O)N[C@@H](Cc1cc(I)c(O)c(I)c1)C(=O)O)c1ccccc1 (stereo partly drawn) [Gd (19), 2,2′,2″-(10-(3-(((S)-1-carboxy-2-(4-hydroxy-3,5-diiodophenyl)ethyl)amino)-3-oxo-2-((R)-2-phenylpropanamido)propyl)-1,4,7,10-tetraazacyclododecane-1,4,7-triyl)triacetic acid]
HSA
  % HSA binding: 69%
[4]
  r1 (20 MHz), absence of HSA: 6.0 mM⁻¹ s⁻¹
  r1 (20 MHz), presence of HSA: 30.7 mM⁻¹ s⁻¹
  r1 (60 MHz), absence of HSA: 6.4 mM⁻¹ s⁻¹
  r1 (60 MHz), presence of HSA: 21.8 mM⁻¹ s⁻¹

## O=C(O)CN(CCN(CC(=O)O)CC(=O)O)CCN(CC(=O)O)CC(=O)O [DTPA]
[5]; pH 4
  Kcomp MS-325 vs. L pH 4: 0.58^5
[5]; pH 7.4
  Kcomp MS-325 vs. L pH 7.4: 0.35^5
[1]; Zn(II) challenge of the Gd(III) complex of L, this work
  Time to 80% r1: 383 min
[6]; pH 4
  Kcomp [Gd(DTPA)(H2O)]^2- vs. L pH 4: 1
[6]; pH 7.4
  Kcomp, [Gd(DTPA)(H2O)]^2- vs. L pH 7.4: 1

## O=C([O-])CN(CCN(CC(=O)[O-])C[C@H](COP(=O)([O-])OC1CCC(c2ccccc2)(c2ccccc2)CC1)N(CC(=O)[O-])CC(=O)[O-])CC(=O)[O-].[Gd+3].[H+].[H+].[H+] [MS-325, gadofosveset]
[7]; 20 MHz, 37° C., literature data (footnotes a, b, d)
  Relaxivity per Gd, 20 MHz: 6.8^d mM^−1 s^−1
[7]; 20 MHz, 37° C., presence of 4.5% HSA, from ref 22
  Relaxivity per Gd, 20 MHz, with HSA: 42^d mM^−1 s^−1
[7]; 60 MHz, 37° C., literature data (footnotes a, b, d)
  Relaxivity per Gd, 60 MHz: 5.4^d mM^−1 s^−1
[7]; 60 MHz, 37° C., presence of 4.5% HSA, from ref 22
  Relaxivity per Gd, 60 MHz, with HSA: 23.8^d mM^−1 s^−1
[7]; HSA-associated
  peak molecular relaxivity: above 40 mM^−1s^−1
[7]; at low fields
  increase in relaxivity once associated with human serum albumin (HSA): over 8 fold
[8]; 200 MHz
  Relaxivity per Gd, 200 MHz: 5.7 mM⁻¹ s⁻¹
[8]; 200 MHz, presence of 4.5% HSA
  Relaxivity per Gd, 200 MHz, with HSA: 5.0 mM⁻¹ s⁻¹
[8]; 400 MHz (9.4 T)
  Relaxivity per Gd, 400 MHz: 4.8 mM⁻¹ s⁻¹
[8]; 400 MHz, presence of 4.5% HSA
  Relaxivity per Gd, 400 MHz, with HSA: 4.1 mM⁻¹ s⁻¹
[8]; 500 MHz
  Relaxivity per Gd, 500 MHz: 4.7 mM⁻¹ s⁻¹
[8]; 500 MHz, presence of 4.5% HSA
  Relaxivity per Gd, 500 MHz, with HSA: 3.7 mM⁻¹ s⁻¹
[2]
  r1 0.47 T 310K: 5.8^17 mM^−1s^−1
  r1 1.41 T 310K: 5.2 (1.5 T)^17 mM^−1s^−1
[3]
  q: 1^18

## COC(=O)CNC(=O)C(CN1CCN(CC(=O)O)CCN(CC(=O)O)CCN(CC(=O)O)CC1)NC(=O)C(N)Cc1cc(I)c(O)c(I)c1 (stereo not shown) [Gd (7), 2,2′,2″-(10-(2-(2-amino-3-(4-hydroxy-3,5-diiodophenyl)propanamido)-3-((2-methoxy-2-oxoethyl)amino)-3-oxopropyl)-1,4,7,10-tetraazacyclododecane-1,4,7-triyl)triacetic acid]
HSA
  % HSA binding: 6%
[4]
  r1 (20 MHz), absence of HSA: 4.7 mM⁻¹ s⁻¹
  r1 (20 MHz), presence of HSA: 7.05 mM⁻¹ s⁻¹
  r1 (60 MHz), absence of HSA: 3.9 mM⁻¹ s⁻¹
  r1 (60 MHz), presence of HSA: 6.9 mM⁻¹ s⁻¹

## C[C@@H](NC(=O)C(CN1CCN(CC(=O)O)CCN(CC(=O)O)CCN(CC(=O)O)CC1)NC(=O)C(N)Cc1cc(I)c(O)c(I)c1)c1ccccc1 (stereo partly drawn) [Gd (13-S), 2,2′,2″-(10-(2-(2-amino-3-(4-hydroxy-3,5-diiodophenyl)propanamido)-3-oxo-3-(((R)-1-phenylethyl)amino)propyl)-1,4,7,10-tetraazacyclododecane-1,4,7-triyl)triacetic acid]
HSA
  % HSA binding: 39%
[4]
  r1 (20 MHz), absence of HSA: 7.1 mM⁻¹ s⁻¹
  r1 (20 MHz), presence of HSA: 18.5 mM⁻¹ s⁻¹
  r1 (60 MHz), absence of HSA: 6.1 mM⁻¹ s⁻¹
  r1 (60 MHz), presence of HSA: 10.9 mM⁻¹ s⁻¹

## C[C@@H](NC(=O)C(CN1CCN(CC(=O)O)CCN(CC(=O)O)CCN(CC(=O)O)CC1)NC(=O)C(N)Cc1cc(I)c(O)c(I)c1)c1ccccc1 (stereo partly drawn) [Gd (13-R), 2,2′,2″-(10-(2-(2-amino-3-(4-hydroxy-3,5-diiodophenyl)propanamido)-3-oxo-3-(((R)-1-phenylethyl)amino)propyl)-1,4,7,10-tetraazacyclododecane-1,4,7-triyl)triacetic acid]
HSA
  % HSA binding: 36%
[4]
  r1 (20 MHz), absence of HSA: 6.6 mM⁻¹ s⁻¹
  r1 (20 MHz), presence of HSA: 18.4 mM⁻¹ s⁻¹
  r1 (60 MHz), absence of HSA: 6.4 mM⁻¹ s⁻¹
  r1 (60 MHz), presence of HSA: 11.4 mM⁻¹ s⁻¹

## 2,2′,2″-(10-(3-(((1-Carboxy-2-(4-hydroxy-3,5-diiodophenyl)ethyl)-amino)-2-(2-(4-isobutylphenyl)propanamido)-3-oxopropyl)-1,4,7,10-tetraazacyclododecane-1,4,7-triyl)triacetic Acid [Gd (8)]
HSA
  % HSA binding: 90%
[4]
  r1 (20 MHz), absence of HSA: 7.1 mM⁻¹ s⁻¹
  r1 (20 MHz), presence of HSA: 31.8 mM⁻¹ s⁻¹
  r1 (60 MHz), absence of HSA: 6.7 mM⁻¹ s⁻¹
  r1 (60 MHz), presence of HSA: 21.1 mM⁻¹ s⁻¹
